Patent US20230047825A1, “ANTIMICROBIAL PEPTIDES” (priority 2019, published 2023)
In brackets after ≈: the same amount, converted by molar mass. Read-outs that look alike come from different tables or passages of the source. Marks after values point to notes of the source that are not given here. Where a SMILES comes first, the peptide text is derived from it.

What was measured:
VRE12201 = test: Antibacterial activity assay (broth microdilution MIC); assay type: cell-based, Enterococcus faecalis; conditions: medium and unit inferred
Description: Antibacterial activity assay.
The bacterial strains used are as in the above examples. A table of strains is provided below to aid understanding.

[1] = test system: EMR Staphylococcus aureus-15 (EMRSA-15); assay type: cell-based; conditions: EMRSA15
[2] = test system: Acinetobacter baumannii ATCC 17978; assay type: cell-based; conditions: in µg/mL; for MIC, Stability in serum (MH): Ab17978
[3] = Electrophysiology (Port-a-Patch patch-clamp) on model membranes; conditions: DPhPG
Description: The depth of insertion into each membrane is shown as the Z-position for each residue, averaged over all four peptides, relative to the phosphate group plane in the upper POPE/POPG (A/E/I) or POPG (C/G/K) bilayer leaflet in six MD simulations. Positive or negative values indicate the peptides are below or above the phosphate group. Representative current traces illustrating membrane activity when DPhPE/DPhPG (B/F/J) or DPhPG (D/H/L) model membranes are challenged with each peptide at the indicated concentration (lowest concentration that induced detectable activity). Data is for pleurocidin (A-D), pleurocidin-KR (E-H) and pleurocidin-VA (I-L). Membrane disordering by each peptide in mixed POPE/POPG bilayers is shown with data obtained from ^2H solid-state NMR (M/N) or from MD simulations where order parameters are calculated for all lipids within 4 Å of a peptide (O/P).
Molecular dynamics simulations. Simulations were carried out on either the ARCHER Cray XC30 supercomputer, or Dell Precision quad core T3400 or T3500 workstations equipped with a 1 kW Power supply (PSU) and two NVIDA PNY GeForce GTX570 or GTX580 graphics cards using Gromacs.^53 The CHARMM36 all-atom force field was used in all simulations^54-56. All simulations were run, as described previously^20 and for a total of 200 nanoseconds and repeated twice, with peptides inserted at different positions and orientations, giving a total of approximately 4.0 μs simulation. Liposome preparation and circular dichroism (CD) spectroscopy. Small unilamellar vesicles (SUV) were produced and far-UV spectra of the peptides obtained as described previously^20 using a Chirascan Plus spectrometer (Applied Photophysics, Leatherhead, UK) with samples maintained at 310 K. For liposome experiments the lipid concentration was 5 mM and a peptide to lipid molar ratio of 1:100 was maintained while the SDS micelles concentration was 20 mM with 200 μM peptide. Electrophysiology experiments (Patch-clamp). Patch clamp experiments were performed using the Port-a-Patch® (Nanion Technologies GmbH, Munich, Germany) with giant unilamellar vesicles (GUVs) composed of DPhPE/DPhPG (60:40, mol:mol) or DPhPG prepared by the electroformation method using the Nanion Vesicle Prep Pro setup (Nanion Technologies GmbH, Munich, Germany) as described previously.^20
Synergy experiments were performed following a checkerboard protocol.

[4] = test system: Escherichia coli NCTC 12923; assay type: cell-based
human red blood cells = test: Haemolysis assay; conditions: red cells of human, 1 h
Method in brief: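 Peptide titrations in PBS incubated with fresh human red blood cells for 1 h at 37 C; supernatant OD550 read after removing intact cells. % haemolysis scaled between PBS-only (0%) and 0.1% Triton-X-100 (100%) controls; mean and SE of three biological replicates.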

[5] = test system: Pseudomonas aeruginosa NCTC 13437; test: Antibacterial activity assay (broth microdilution MIC); assay type: cell-based; conditions: PA13437, in µg/mL
[6] = test system: Klebsiella pneumoniae NCTC 13368; assay type: cell-based; conditions: KP13368, in µg/mL
Klebsiella pneumoniae M6 = assay type: cell-based
[7] = test system: MS Staphylococcus aureus ATCC 9144; assay type: cell-based
[8] = test system: VS Enterococcus faecalis NCTC 775; test: Antibacterial activity assay (broth microdilution MIC); assay type: cell-based
[9] = test system: EMR Staphylococcus aureus-16 (EMRSA-16); assay type: cell-based; conditions: EMRSA16
[10] = untitled table, medium/unit inferred, values match RPMI of Table 2
[11] = untitled table, medium/unit not given, values match RPMI of Table 2
[12] = medium and unit not given, in µg/mL

MIC on initial panels (VRE12201): > 128 µg/mL
MIC on initial panels ([1]; medium and unit inferred): 64 µg/mL (≈ 24.1 µM)
MIC [1, 10]: 32 µg/mL (≈ 12.1 µM)
MIC on initial panels ([2]; AB17978, medium and unit not given): 1-2
MIC ([2]; AB17978, untitled table, medium/unit not given, values match RPMI of Table 2): 32
MIC, Stability in serum (MH) ([2]; No serum): 2
MIC, Stability in serum (MH) ([2]; Serum (10% fetal bovine serum)): 4
MIC, Stability in serum (MH) ([4]; EC12923, No serum): 1 µg/mL (≈ 0.377 µM)
MIC, Stability in serum (MH) ([4]; EC12923, Serum (10% fetal bovine serum)): 1 µg/mL (≈ 0.377 µM)
MIC on initial panels ([4]; EC12923, medium and unit not given, in µg/mL): 1
MIC ([4]; EC12923, untitled table, medium/unit not given, values match RPMI of Table 2, in µg/mL): 32
MIC, Peptide concentration ([4]; NCTC 12923): 1 µg/mL (≈ 0.377 µM)
MIC, Stability in serum (MH) ([5]; No serum): 16*
MIC, Stability in serum (MH) ([5]; Serum (10% fetal bovine serum)): >128
MIC on initial panels ([5]; medium and unit not given): 32
MIC [5, 11]: >32
MIC, Stability in serum (MH) ([6]; No serum): 8
MIC, Stability in serum (MH) ([6]; Serum (10% fetal bovine serum)): 16
MIC on initial panels ([6]; medium and unit not given): 4-8
MIC [6, 11]: 32
MIC, Stability in serum (MH) (Klebsiella pneumoniae M6; No serum): 16 µg/mL (≈ 6.03 µM)
MIC, Stability in serum (MH) (Klebsiella pneumoniae M6; Serum (10% fetal bovine serum)): 8 µg/mL (≈ 3.01 µM)
MIC on initial panels (Klebsiella pneumoniae M6; [12]): 4-8
MIC (Klebsiella pneumoniae M6; untitled table, medium/unit not given, values match RPMI of Table 2, in µg/mL): 32
MIC, Peptide concentration ([7]; ATCC 9144): 8 µg/mL (≈ 3.01 µM)
MIC on initial panels ([7]; MSSA9144, medium and unit inferred): 8 µg/mL (≈ 3.01 µM)
MIC ([7]; MSSA9144, untitled table, medium/unit not given, values match RPMI of Table 2, in µg/mL): 32
MIC, Peptide concentration ([8]; Mueller-Hinton broth): 64-128 (NG) μg/ml
MIC on initial panels ([8]; VSE775, medium and unit not given, in µg/mL): 64-128
MIC on initial panels [9, 12]: 64-128
MIC [9, 10]: > 32 µg/mL
SMILES: CC(C)C[C@H](NC(=O)[C@H](Cc1ccc(O)cc1)NC(=O)[C@H](Cc1c[nH]cn1)NC(=O)[C@@H](NC(=O)[C@H](CC(C)C)NC(=O)[C@H](C)NC(=O)[C@H](C)NC(=O)[C@H](CCCCN)NC(=O)CNC(=O)[C@H](C)NC(=O)[C@H](Cc1c[nH]cn1)NC(=O)[C@H](CCCCN)NC(=O)CNC(=O)[C@H](C)NC(=O)[C@H](Cc1c[nH]cn1)NC(=O)[C@H](C)NC(=O)[C@H](C)NC(=O)[C@H](CCCCN)NC(=O)[C@H](CCCCN)NC(=O)[C@H](Cc1ccccc1)NC(=O)[C@H](Cc1ccccc1)NC(=O)[C@H](CO)NC(=O)CNC(=O)[C@H](Cc1c[nH]c2ccccc12)NC(=O)CN)[C@@H](C)O)C(N)=O [Pleurocidin-VA] (H-GWGSFFKKAAHAGKHAGKAALTHYL-NH2; N-terminus assumed)
Peptide concentration necessary to start membrane activity [3]: 2.5 µM
Toxicity HC50, Peptide concentration (human red blood cells): >>400 μg/ml
